According to ChEMBL document CHEMBL1201862, “PubChem BioAssay data set” (2004):
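Protocol summary: plate cells (96-well), add compound at 5 concentrations, incubate 48 h, interpolate endpoints linearly. GI50: concentration for 50% inhibition of growth.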 Calls of active or inactive are those of the source. No stated cut-off is given here; in the data, active = GI50 up to about 1.1 µM and inactive = higher.

What was measured:
Assay in all cases: NCI tumour cell line growth inhibition, 48 h
[1] = tested on: 786-0
[2] = tested on: A498
[3] = tested on: A549
[4] = tested on: ACHN
[5] = tested on: BT-549
[6] = tested on: CAKI-1
[7] = tested on: CCRF-CEM
[8] = tested on: COLO 205
[9] = tested on: DU-145
[10] = tested on: EKVX
[11] = tested on: HCC 2998
[12] = tested on: HCT-116
[13] = tested on: HCT-15
[14] = tested on: HL-60
[15] = tested on: HOP-62
[16] = tested on: HOP-92
[17] = tested on: HT-29
[18] = tested on: Hs-578T
[19] = tested on: IGROV-1
[20] = tested on: K562
[21] = tested on: KM12
[22] = tested on: LOX IMVI
[23] = tested on: M14
[24] = tested on: MCF7
[25] = tested on: MDA-MB-231
[26] = tested on: MDA-MB-435
[27] = tested on: MDA-N
[28] = tested on: MOLT-4
[29] = tested on: Malme-3M
[30] = tested on: NCI-H226
[31] = tested on: NCI-H23
[32] = tested on: NCI-H460
[33] = tested on: NCI-H522
[34] = tested on: NCI/ADR-RES
[35] = tested on: OVCAR-3
[36] = tested on: OVCAR-4
[37] = tested on: OVCAR-5
[38] = tested on: OVCAR-8
[39] = tested on: PC-3
[40] = tested on: RPMI-8226
[41] = tested on: RXF 393
[42] = tested on: SF-268
[43] = tested on: SF-295
[44] = tested on: SF-539
[45] = tested on: SK-MEL-28
[46] = tested on: SK-MEL-2
[47] = tested on: SK-MEL-5
[48] = tested on: SK-OV-3
[49] = tested on: SN12C
[50] = tested on: SNB-19
[51] = tested on: SNB-75
[52] = tested on: SW-620
[53] = tested on: T47D
[54] = tested on: TK-10
[55] = tested on: U-251
[56] = tested on: UACC-257
[57] = tested on: UACC-62
[58] = tested on: UO-31

COc1cccc(/C=C\c2ccnc3ccccc23)c1
GI50 [1]: > 10 µM (inactive) | GI50 [2]: > 10 µM (inactive) | GI50 [3]: > 10 µM (inactive) | GI50 [4]: > 10 µM (inactive) | GI50 [5]: > 10 µM (inactive) | GI50 [6]: > 10 µM (inactive) | GI50 [7]: > 10 µM (inactive) | GI50 [8]: > 10 µM (inactive) | GI50 [9]: > 10 µM (inactive) | GI50 [10]: > 10 µM (inactive) | GI50 [11]: > 10 µM (inactive) | GI50 [12]: > 10 µM (inactive) | GI50 [13]: > 10 µM | GI50 [14]: > 10 µM (inactive) | GI50 [15]: > 10 µM (inactive) | GI50 [16]: > 10 µM (inactive) | GI50 [17]: > 10 µM (inactive) | GI50 [18]: > 10 µM (inactive) | GI50 [19]: > 10 µM (inactive) | GI50 [20]: > 10 µM (inactive) | GI50 [21]: > 10 µM (inactive) | GI50 [22]: 9.51 µM (inactive) | GI50 [23]: > 10 µM (inactive) | GI50 [24]: > 10 µM (inactive) | GI50 [25]: > 10 µM (inactive) | GI50 [26]: > 10 µM (inactive) | GI50 [27]: > 10 µM (inactive) | GI50 [28]: > 10 µM (inactive) | GI50 [29]: > 10 µM (inactive) | GI50 [30]: > 10 µM (inactive) | GI50 [31]: > 10 µM (inactive) | GI50 [32]: > 10 µM (inactive) | GI50 [33]: > 10 µM (inactive) | GI50 [34]: > 10 µM (inactive) | GI50 [35]: > 10 µM (inactive) | GI50 [36]: > 10 µM (inactive) | GI50 [37]: > 10 µM (inactive) | GI50 [38]: > 10 µM (inactive) | GI50 [39]: > 10 µM (inactive) | GI50 [40]: > 10 µM (inactive) | GI50 [41]: > 10 µM (inactive) | GI50 [42]: > 10 µM (inactive) | GI50 [43]: > 10 µM (inactive) | GI50 [44]: > 10 µM (inactive) | GI50 [45]: > 10 µM (inactive) | GI50 [46]: > 10 µM (inactive) | GI50 [47]: > 10 µM (inactive) | GI50 [48]: > 10 µM (inactive) | GI50 [49]: > 10 µM (inactive) | GI50 [50]: > 10 µM (inactive) | GI50 [51]: > 10 µM (inactive) | GI50 [52]: > 10 µM (inactive) | GI50 [53]: > 10 µM (inactive) | GI50 [54]: > 10 µM (inactive) | GI50 [55]: > 10 µM (inactive) | GI50 [56]: > 10 µM (inactive) | GI50 [57]: > 10 µM (inactive) | GI50 [58]: > 10 µM (inactive)

O=[N+]([O-])c1ccc(/C=N\N=c2/ccc([N+](=O)[O-])c[nH]2)cc1
GI50 [1]: > 100 µM (inactive) | GI50 [3]: > 100 µM (inactive) | GI50 [4]: > 100 µM (inactive) | GI50 [5]: > 100 µM (inactive) | GI50 [7]: > 100 µM (inactive) | GI50 [8]: > 100 µM (inactive) | GI50 [9]: > 100 µM (inactive) | GI50 [10]: > 100 µM (inactive) | GI50 [11]: > 100 µM (inactive) | GI50 [12]: > 100 µM (inactive) | GI50 [13]: > 100 µM | GI50 [14]: > 100 µM (inactive) | GI50 [15]: > 100 µM (inactive) | GI50 [16]: > 100 µM (inactive) | GI50 [17]: > 100 µM (inactive) | GI50 [18]: > 100 µM (inactive) | GI50 [19]: > 100 µM (inactive) | GI50 [20]: > 100 µM (inactive) | GI50 [21]: > 100 µM (inactive) | GI50 [23]: > 100 µM (inactive) | GI50 [24]: > 100 µM (inactive) | GI50 [25]: 46 µM (inactive) | GI50 [26]: > 100 µM (inactive) | GI50 [27]: > 100 µM (inactive) | GI50 [28]: > 100 µM (inactive) | GI50 [29]: > 100 µM (inactive) | GI50 [30]: > 100 µM (inactive) | GI50 [31]: > 100 µM (inactive) | GI50 [32]: > 100 µM (inactive) | GI50 [33]: > 100 µM (inactive) | GI50 [34]: > 100 µM (inactive) | GI50 [35]: > 100 µM (inactive) | GI50 [36]: > 100 µM (inactive) | GI50 [37]: > 100 µM (inactive) | GI50 [38]: > 100 µM (inactive) | GI50 [39]: > 100 µM (inactive) | GI50 [40]: > 100 µM (inactive) | GI50 [41]: > 100 µM (inactive) | GI50 [42]: > 100 µM (inactive) | GI50 [43]: > 100 µM (inactive) | GI50 [44]: 32.6 µM (inactive) | GI50 [45]: > 100 µM (inactive) | GI50 [46]: > 100 µM (inactive) | GI50 [47]: > 100 µM (inactive) | GI50 [48]: 86.9 µM (inactive) | GI50 [49]: > 100 µM (inactive) | GI50 [50]: > 100 µM (inactive) | GI50 [51]: 90.6 µM (inactive) | GI50 [52]: > 100 µM (inactive) | GI50 [53]: > 100 µM (inactive) | GI50 [54]: > 100 µM (inactive) | GI50 [55]: 69 µM (inactive) | GI50 [56]: > 100 µM (inactive) | GI50 [57]: > 100 µM (inactive) | GI50 [58]: > 100 µM (inactive)
